Earlier results on two molecules are cited in US9439853B2, “Form of administration of enkephalinase inhibitor” (BIOPROJET, priority 2010, dated 2016).

For this series the following is noted: for ondansetron the water phase of the suspension.

As to `CC(=O)SCC(Cc1ccccc1)C(=O)NCC(=O)OCc1ccccc1` (centres unmarked) [Racecadotril], the solubility in water result is on record as “insoluble in water”.

For `Cc1nccn1CC1CCc2c(c3ccccc3n2C)C1=O` (centres unmarked) [ondansetron], the solubility in water result is recorded as “soluble in the water phase of the suspension”.
